How the values were obtained:
[1] = test system: C2C12 murine skeletal muscle myoblasts; test: diameter of C2C12 myotubes (anti-desmin labelling); assay type: cell-based; settings: for mean diameter size of myotubes: C2C12 myotubes, urolithin B 15 μM 24 h, TNF-alpha 10 ng/mL 4 h, leucine 5 mM
Experimental: The inventors selected C2C12 murine skeletal muscle myoblasts for measuring the effect of polyphenols on muscle metabolism, especially when submitted to inflammatory stress (e.g. upon TNF-alpha exposure). In these conditions, anabolism is blocked.
C2C12 myoblasts were differentiated for 4 days using 1% horse serum and 1% penicillin/streptomycin. The cells were thereafter grown for 24 h either with the same differentiation medium or with the differentiation medium supplemented with 15 μM urolithin B (conditions 5-8 of FIGS. 2-4 and of Table 1). Then the cells were grown either with the same differentiation medium or in the differentiation medium supplemented with 10 ng/mL TNF-alpha for 4 h (conditions 3-4 and 7-8 of FIGS. 2-4 and of Table 1). Thereafter, the cells were grown either with the same differentiation medium or in the differentiation medium supplemented with 5 mM leucine (conditions 2, 4, 6 and 8 of FIGS. 2-4 and of Table 1). The myotubes were labelled using anti-desmin antibodies, and nuclei labelling by Hoechst staining. Urolithin B consistently stimulates the diameter of myotubes.

mTOR = mTOR phosphorylation; assay type: cell-based
Excerpt: The inventors then have measured mTOR phosphorylation again to reflect protein synthesis and have observed a marginal leucine-induced phosphorylation and a strong urolithin B-induced phosphorylation.

P70S6k = P70S6k phosphorylation; assay type: cell-based
androgen receptor = androgen receptor agonism (concluded from bicalutamide blockade); assay type: cell-based
Excerpt: Finally, the inventors have measured the effect of rapamycin, on another mTOR inhibitor and of the anti-androgen bicalutamide (FIGS. 5-6 show the effect on the size of the muscular fibres) on the urolithin B-induced effects (including on the phosphorylation on mTOR, of AMPK, . . . ) and conclude that urolithin B acts upon binding and activating the androgen receptor, then by releasing the AMPK-inhibition on mTOR, increases protein synthesis in muscle cells, then the diameter of muscle fibres.

[2] = test system: breast and on prostate cancer cell lines; settings: cited from earlier work
C2C12 myoblasts = test: toxicity of urolithin B addition; assay type: cell-based, murine; settings: concentrations of up to 40 μM
Experimental: The inventors have firstly measured if the addition of urolithin B presents some toxicity, but no toxicity was measured for concentrations of up to 40 μM.

Akt = Akt phosphorylation; assay type: cell-based
Excerpt: (§1) The inventors then have measured Akt and PRAS40 phosphorylation still to analyse possible metabolism pathways. However, besides a tendency of synergy between the leucine and urolithin B addition, no major difference in phosphorylation patterns were observed.

PRAS40 = PRAS40 phosphorylation; assay type: cell-based
Excerpt: as §1

AMPK = AMPK phosphorylation; assay type: cell-based
denervated muscle = test: weight loss of denervated muscle, intravenous; assay type: in vivo; settings: mammal
[3] = compared with urolithins A, C and D and whole polyphenol extract; cited from earlier work
[4] = human patients fed with pomegranate extract; compared with urolithin A; cited from earlier work

CC(C)C[C@H](N)C(=O)O [Leucine, leucine]
mean diameter size of myotubes [1]: 25.5 | mTOR phosphorylation (mTOR): marginal

O=c1oc2cc(O)ccc2c2ccc(O)cc12 [urolithin A, reference compound]
size of myotubes ([1]; up to 10 μM urolithin A, vs control): does not increase | induction of P70S6k phosphorylation (P70S6k): almost no induction | androgen-receptor agonist (androgen receptor): not | anti cancer activity [2]: direct anti cancer activity

O=c1oc2cc(O)ccc2c2ccccc12 [urolithin B]
mean diameter size of myotubes [1]: 32.6 | size of myotubes ([1]; urolithin B at 15 μM): significantly increased | toxicity (C2C12 myoblasts): no toxicity | mTOR phosphorylation (mTOR): strong | Akt phosphorylation (Akt): does not induce | PRAS40 phosphorylation (PRAS40): does not induce | AMPK phosphorylation (AMPK): strong reduction | androgen-receptor agonist (androgen receptor): agonist | weight loss of denervated muscle (denervated muscle): prevents | antioxidant and anti-inflammatory properties [3]: much weaker | amount in the blood [4]: much lower | anti cancer activity [2]: direct anti cancer activity

TNFa
mean diameter size of myotubes [1]: 16.7

— US20160045472A1, “UROLITHIN B FOR MUSCLE GROWTH” (PROCELL SPRL, priority 2013, published 2016)
